Experiments:
[1] = test system: KDM4A; experiment: KDM4A protein levels by western blot; type: cell-based, human; details: RPE cells
Protocol: Western blot analyses were performed according to (Black et al., 2010).
Western blots were performed as in (Black et al., 2010). Briefly, adherent cells were either scraped directly into PBS, or washed with PBS, trypsinized and collected by centrifuging at 2,000 RPM for 5 minutes. For preparation of whole-cell lysates, cell pellets were washed once in ice-cold PBS and resuspended in RIPA lysis buffer [50 mM Tris pH 7.4, 150 mM NaCl, 0.25% Sodium Deoxycholate, 1% NP40, 1 mM EDTA, 10% Glycerol] supplemented with complete protease inhibitor and PhosSTOP™ phosphatase inhibitor cocktails (Roche). Cells were lysed on ice for 15 minutes and immediately frozen at −80° C. for 10 min. Lysates were subsequently sonicated at 70% amplitude for 15 minutes in a QSonica Q800R™ and cleared of cell debris by centrifuging at 12,000 RPM for 15 minutes, before being analyzed by western blotting. For HIF1α expression, adherent cells were washed twice with ice-cold PBS and scraped directly in warmed 1× Laemmli buffer. Samples were sonicated at 70% amplitude for 15 minutes and boiled immediately prior to western blotting.

[2] = test system: 1q12h copy gain in RPE cells; experiment: FISH for site-specific copy gain; type: cell-based, human; details: RPE cells
Protocol: FISH was performed as described in (Manning et al., 2010). Probes for 1q12h, 1q telomere, and chromosome 2, 6, 8, and X alpha satellite were purchased from Rainbow Scientific. Probes for 1q12 (RP11-80L2), Xq13.2 (RP11-451A22), Xq13.1 (RP11-177A4) were purchased as BAC clones from Children's Hospital Oakland Research Institute (CHORI BacPac) FISH verified clone repository. Oligonucleotide probes for 1q21.2 (BCL9) and 1q23.3 were purchased from Agilent (SureFISH). BACS were prepared utilizing PureLink HiPure Plasmid Filter Maxiprep kit (Life Technologies) using the recommended modified wash buffer. Probes were nick translated (Abbot Molecular Kit) in the presence of fluorescently labeled dTTP (Enzo Life Science). Images of multiple planes of fields of nuclei were acquired on an Olympus IX81 Spinning Disk Microscope and analyzed using Slidebook 5.0 software. We used a conservative scoring metric for copy gain. Any foci that were touching were scored as a single foci to prevent increased numbers due to normally replicated foci. For RPE cells, copy gain was scored as any cell with 3 or more distinct foci. For 293T cells, copy gain was scored for any cell with 5 or more distinct foci. For RPE cells each experiment includes at least one replicate from the two different polyclonal stable cell preparations. At least 100 cells for each replicate were scored for all experiments except analysis of single cell clones.
Cells were plated onto culture dishes and allowed to adhere for 20-24 hrs in normoxia (5% CO2, 21% O2, and 74% N2). For hypoxic treatment, cells were maintained in a HERA Cell 150™ incubator (Thermo Scientific) flushed with 5% CO2, 1% O2 or 4% O2, and balanced with N2 for the duration of the experiment. Incubator calibrations were carried out by Bianchi Associates Calibrations/Verifications.
To release, cells were washed twice with culture medium pre-conditioned in normoxia or hypoxia, and supplied with fresh pre-conditioned media. For JIB-04 treatment, normoxic cells were pre-treated with 62.5 nM JIB-04 (Xcessbio) for 24 hrs, then treated again with JIB-04 and either transferred to 1% O2 or maintained in normoxia for an additional 24 hrs. Succinate was administered at a final concentration of 2 mM and cells were either maintained in normoxia for 72 hrs or maintained in normoxia for 48 hrs prior to being transferred to 1% O2 for 24 hrs.
FISH was performed as described in (Black et al., 2013; Manning et al., 2010). Probes for 1q12h, 1q telomere, chromosome 8 centromere (alpha satellite), and X centromere (alpha satellite) were purchased from Rainbow Scientific. Probes for Xq13.1 (RP11-177A4), Zebrafish BCL9 (CH73-15J19) and Zebrafish IGBP1 (CH73-223D24) were purchased as BAC clones from Children's Hospital Oakland Research Institute (CHORI BacPac) clone repository. Probes for 1q21.2 (BCL9) and 1q23.3 were purchased from Agilent (SureFISH).
FISH was performed as described in (Black et al., 2013; Manning et al., 2010). Probes for 1q12h, 1q telomere, chromosome 8 centromere (alpha satellite), and X centromere (alpha satellite) were purchased from Rainbow Scientific. Probes for Xq13.1 (RP11-177A4), Zebrafish BCL9 (CH73-15J19) and Zebrafish IGBP1 (CH73-223D24) were purchased as BAC clones from Children's Hospital Oakland Research Institute (CHORI BacPac) clone repository. Probes for 1q21.2 (BCL9) and 1q23.3 were purchased from Agilent (SureFISH). BACS were prepared utilizing PureLink HiPure™ Plasmid Filter Maxiprep kit (Life Technologies) using the recommended modified wash buffer. Probes were nick translated (Abbot Molecular Kit) in the presence of fluorescently labeled dTTP (Enzo Life Science). Images of multiple planes of fields of nuclei were acquired on an Olympus IX81 T Spinning Disk Microscope and analyzed using Slidebook™ 5.0 software. A conservative scoring metric was used for copy gain. Any foci that were touching were scored as a single copy to prevent increased numbers due to normally replicated foci.

[3] = test system: RPE cells; experiment: Flow cytometry cell cycle analysis; type: cell-based, human
Protocol: Asynchronously growing, or G1/S arrested cells were prepared and fixed as in (Black et al., 2010). Cells were stained with 10 μM EdU for 1 hour prior to collection. Cell cycle was analyzed by PI staining or EdU incorporation using Click-IT EdU™ Flow Cytometry Assay Kit (Life Technologies). Flow cytometry of CD4+ T cells and cell cycle distribution were analyzed using a BD FACS ARIA II™.

[4] = test system: HEK 293T cells; experiment: MTT proliferation and viability assay; type: cell-based, human; details: shRNA 4A.10 or 4A.06, 48h
Protocol: For tissue culture and generation of stable cell lines see (Black et al., 2010). Rapamycin (LC Laboratories) and AZD8055 (Selleckchem) were used at indicated concentrations. […] JIB-04 (Xcessbio) was used at a final concentration of 250 nM. For the translation assays, DMEM depleted of Methionine and Cysteine (Life Technologies 21013-024) was used.
MTT assays were performed following supplier's instructions from the Cell Proliferation Kit I™ (MTT) from Roche. Briefly, 1×10^4 cells were seeded per well of a 96 well plate and grown for 24h before treatment. Forty-eight hours later, cells were assayed.

[5] = test system: RPE cells; experiment: Apoptosis by annexin V staining; type: cell-based, human; details: RPE CTRL and KDM4A overexpressing cells
[6] = test system: p53; experiment: p53 stabilization and p53 target gene induction after DNA damage; type: cell-based, human; details: RPE GFP-CTRL and GFP-KDM4A cells; 1 uM for 16 hrs
Protocol: Western blots were performed as in (Black et al., 2010). Antibodies used were: KDM4A (Neuro mAB, 75-189), β-actin (Millipore), GFP (Neuro mAB, 73-131), RFP (Abcam, ab62341), p53 (Santa Cruz, sc-126), MCM2 (Cell Signaling, #3619S), MCM3 (Cell Signaling, #4012S), MCM7 (Cell Signaling, #3735S), Halo (Promega), Actinin (Santa Cruz, sc-17829), HA 12CA5 (Roche), FLAG M2 (Sigma), DNA Pol α (Abcam, ab31777).

[7] = test system: HEK 293T cells; experiment: Monitored cell proliferation assay (xCELLigence growth curves, doubling time); type: cell-based, human
Protocol: Seventy two hours post transfection 1×10^4 HEK 293T cells were seeded per well of a 96 well plate, and then treated after 24h. Cell proliferation was monitored with an xCELLigence system (Roche) (Vistejnova et al., 2009).

[8] = test system: cells depleted of KDM4A (shA10); experiment: Rapamycin sensitivity of KDM4A-depleted (shA10) cells transfected with wild-type or mutant KDM4A; type: cell-based; details: shA10 depletion background
Protocol: Cells were depleted of KDM4A (shA10) and transfected with wild-type (WT) or mutant KDM4A. […] This differed from WT expression in the depletion background, which was less sensitive. […]
The effect of KMD4A mutations on drug sensitivity was examined by depleting cells of KDM4A (shA10) and then transfecting with wild-type or mutant KDM4A. The sensitivity of the cells to rapamycin was then determined. […] This differed from WT expression in the depletion background, which was less sensitive.

`O=C(O)CCC(=O)O` [succinate, reference compound] was tested, and the “KDM4A protein levels in hypoxia” value ([1]; 1% O2) was “did not alter KDM4A stabilization”, the “hypoxia-dependent copy gain of 1q12h” value ([2]; 1% O2 24 hours, JIB-04 62.5 nM or 2 mM succinate pre-treatment, or overexpression) was “sufficient to abrogate hypoxia-dependent copy gain of 1q12h” and the “hypoxia-induced 1q12h copy number gains” value ([2]; 4% oxygen, transfection or 2 mM succinate for 24 hours) was “antagonized”. For the same molecule, the cell cycle profile ([3]; normoxia and hypoxia) was “did not alter KDM4A stabilization or cell cycle progression”.

`COc1ccc(-c2ccc3c(N4CCOC[C@@H]4C)nc(N4CCOC[C@@H]4C)nc3n2)cc1CO` [AZD8055] was tested, and the “drug sensitivity of KDM4A shRNA cells vs control vector (MTT)” value [4] was “more sensitive”.

`NC(=O)NO` [HU, hydroxyurea] was tested, and the “apoptosis (percent Annexin V positive cells)” value [5] was “no observed increased apoptosis”.

In the case of Tunicamycin, the “KDM4A protein levels under stress” value ([1]; 24 hours) is reported as “significantly increased KDM4A levels”, the “site-specific copy gain (1q12h and 1q21.2) under stress” value ([2]; 24 hours, 2 μg/ml Tunicamycin) is reported as “did not promote site-specific copy gain” and the “cell cycle profile under stress” value ([3]; 24 hours) is reported as “resulted in altered cell cycle profiles”.

In the case of `COc1cccc2c1C(=O)c1c(O)c3c(c(O)c1C2=O)C[C@@](O)(C(=O)CO)C[C@@H]3O[C@H]1C[C@H](N)[C@H](O)[C@H](C)O1` [doxorubicin], the “apoptosis (percent Annexin V positive cells)” value [5] is reported as “could induce apoptosis in both CTRL and KDM4A cells” and the “p53 stabilization and p53 target gene activation” value [6] is reported as “resulted in stabilization of p53 and activation of p53 target genes”.

B1: KDM4A WT: wild type KDM4A (major allele E482) (protein)
chain: MASESETLNPSARIMTFYPTMEEFRNFSRYIAYIESQGAHRAGLAKVVPPKEWKPRASYDDIDDLVIPAPIQQLVTGQSGLFTQYNIQKKAMTVREFRKIANSDKYCTPRYSEFEELERKYWKNLTFNPPIYGADVNGTLYEKHVDEWNIGRLRTILDLVEKESGITIEGVNTPYLYFGMWKTSFAWHTEDMDLYSINYLHFGEPKSWYSVPPEHGKRLERLAKGFFPGSAQSCEAFLRHKMTLISPLMLKKYGIPFDKVTQEAGEFMITFPYGYHAGFNHGFNCAESTNFATRRWIEYGKQAVLCSCRKDMVKISMDVFVRKFQPERYKLWKAGKDNTVIDHTLPTPEAAEFLKESELPPRAGNEEECPEEDMEGVEDGEEGDLKTSLAKHRIGTKRHRVCLEIPQEVSQSELFPKEDLSSEQYEMTECPAALAPVRPTHSSVRQVEDGLTFPDYSDSTEVKFEELKNVKLEEEDEEEEQEAAALDLSVNPASVGGRLVFSGSKKKSSSSLGSGSSRDSISSDSETSEPLSCRAQGQTGVLTVHSYAKGDGRVTVGEPCTRKKGSAARSFSERELAEVADEYMFSLEENKKSKGRRQPLSKLPRHHPLVLQECVSDDETSEQLTPEEEAEETEAWAKPLSQLWQNRPPNFEAEKEFNETMAQQAPHCAVCMIFQTYHQVEFGGFNQNCGNASDLAPQKQRTKPLIPEMCFTSTGCSTDINLSTPYLEEDGTSILVSCKKCSVRVHASCYGVPPAKASEDWMCSRCSANALEEDCCLCSLRGGALQRANDDRWVHVSCAVAILEARFVNIAERSPVDVSKIPLPRFKLKCIFCKKRRKRTAGCCVQCSHGRCPTAFHVSCAQAAGVMMQPDDWPFVVFITCFRHKIPNLERAKGALQSITAGQKVISKHKNGRFYQCEVVRLTTETFYEVNFDDGSFSDNLYPEDIVSQDCLQFGPPAEGEVVQVRWTDGQVYGAKFVASHPIQMYQVEFEDGSQLVVKRDDVYTLDEELPKRVKSRLSVASDMRFNEIFTEKEVKQEKKRQRVINSRYREDYIEPALYRAIME
modifications: left off: large carriers
In the case of B1, the “rescue of increased sensitivity to AZD8055 due to KDM4A depletion (doubling time 5h-35h)” value ([7]; shRNA KDM4A plus non targetable GFP-KDM4A constructs) is reported as “rescues”, the “rescue of increased sensitivity to Rapamycin of KDM4A depleted cells (doubling time 5h-35h)” value ([7]; shRNA KDM4A plus shRNA-resistant GFP-KDM4A constructs) is reported as “rescues” and the “sensitivity of cells to rapamycin” value [8] is reported as “reduced the sensitivity of the cells”.

Reference: patent publication US20160113911A1, “METHODS AND COMPOSITIONS FOR THE TREATMENT OF CANCER” (THE GENERAL HOSPITAL CORPORATION, priority 2013, published 2016)
